Test results as given in ChEMBL document CHEMBL4477209, “Indole-2-carboxamide-based MmpL3 Inhibitors Show Exceptional Antitubercular Activity in an Animal Model of Tuberculosis Infection” (J Med Chem, 2016).
In brackets after ≈: the same amount, converted by molar mass.

Experiments:
[1] = tested on: Mycobacterium tuberculosis; test: Inhibition of MmpL3 in clinical isolates of isoniazid/rifampin resistant Mycobacterium tuberculosis KZN494 after 7 to 14 days by alamar blue assay
[2] = tested on: Mycobacterium tuberculosis; test: Inhibition of MmpL3 in clinical isolates of isoniazid/rifampin resistant Mycobacterium tuberculosis V2475 after 7 to 14 days by alamar blue assay
[3] = tested on: Mycobacterium tuberculosis; test: Inhibition of MmpL3 in clinical isolates of extensively drug resistant Mycobacterium tuberculosis TF274 after 7 to 14 days by alamar blue assay
[4] = tested on: Mycobacterium tuberculosis; test: Inhibition of MmpL3 in clinical isolates of extensively drug resistant Mycobacterium tuberculosis R506 after 7 to 14 days by alamar blue assay
[5] = tested on: Mycobacterium tuberculosis H37Rv; test: Inhibition of MmpL3 TSK54R mutant in Mycobacterium tuberculosis H37Rv assessed as growth inhibition

For `C[C@@H]1[C@H]2C[C@@H](C[C@H]1NC(=O)c1cc3c(Cl)cc(Cl)cc3[nH]1)C2(C)C`, the MIC [1] was 43 µM (≈ 15.7 µg/mL), the MIC [2] was 171 µM (≈ 62.5 µg/mL) and the MIC [3] was 21 µM (≈ 7.67 µg/mL). For the same compound, the MIC [4] was 21 µM (≈ 7.67 µg/mL).
For `O=C(NC1CCCCCCC1)c1cc2c(Cl)cc(Cl)cc2[nH]1`, the MIC [2] was 11 µM (≈ 3.73 µg/mL), the MIC [3] was 11 µM (≈ 3.73 µg/mL) and the MIC [4] was 6 µM (≈ 2.04 µg/mL).
Compound `C[C@@H]1[C@H]2C[C@@H](C[C@H]1NC(=O)c1cc3c(F)cc(F)cc3[nH]1)C2(C)C` has an MIC [1] of 12 µM (≈ 3.99 µg/mL), an MIC [2] of 47 µM (≈ 15.6 µg/mL) and an MIC [3] of 6 µM (≈ 1.99 µg/mL). The MIC [4] was 12 µM (≈ 3.99 µg/mL) and the MIC [5] was 0.0625 to 0.125 µg/mL (≈ 0.188 to 0.376 µM).
